{"source": "patent US10968225B2", "about": "“Compounds and compositions for the treatment of cystic fibrosis” (Fondazione Istituto Italiano Di Tecnologia, priority 2017, dated 2021)", "note": "Counter-ions that a name gives are not always drawn.", "data": [{"target": "T1, mutant CFTR (Homo sapiens, UniProt P13569, DEL508-508)", "T1 construct": "expressed in transfected cells", "T1 sequence (P13569 with tags, fused parts or gaps DEL508-508)": "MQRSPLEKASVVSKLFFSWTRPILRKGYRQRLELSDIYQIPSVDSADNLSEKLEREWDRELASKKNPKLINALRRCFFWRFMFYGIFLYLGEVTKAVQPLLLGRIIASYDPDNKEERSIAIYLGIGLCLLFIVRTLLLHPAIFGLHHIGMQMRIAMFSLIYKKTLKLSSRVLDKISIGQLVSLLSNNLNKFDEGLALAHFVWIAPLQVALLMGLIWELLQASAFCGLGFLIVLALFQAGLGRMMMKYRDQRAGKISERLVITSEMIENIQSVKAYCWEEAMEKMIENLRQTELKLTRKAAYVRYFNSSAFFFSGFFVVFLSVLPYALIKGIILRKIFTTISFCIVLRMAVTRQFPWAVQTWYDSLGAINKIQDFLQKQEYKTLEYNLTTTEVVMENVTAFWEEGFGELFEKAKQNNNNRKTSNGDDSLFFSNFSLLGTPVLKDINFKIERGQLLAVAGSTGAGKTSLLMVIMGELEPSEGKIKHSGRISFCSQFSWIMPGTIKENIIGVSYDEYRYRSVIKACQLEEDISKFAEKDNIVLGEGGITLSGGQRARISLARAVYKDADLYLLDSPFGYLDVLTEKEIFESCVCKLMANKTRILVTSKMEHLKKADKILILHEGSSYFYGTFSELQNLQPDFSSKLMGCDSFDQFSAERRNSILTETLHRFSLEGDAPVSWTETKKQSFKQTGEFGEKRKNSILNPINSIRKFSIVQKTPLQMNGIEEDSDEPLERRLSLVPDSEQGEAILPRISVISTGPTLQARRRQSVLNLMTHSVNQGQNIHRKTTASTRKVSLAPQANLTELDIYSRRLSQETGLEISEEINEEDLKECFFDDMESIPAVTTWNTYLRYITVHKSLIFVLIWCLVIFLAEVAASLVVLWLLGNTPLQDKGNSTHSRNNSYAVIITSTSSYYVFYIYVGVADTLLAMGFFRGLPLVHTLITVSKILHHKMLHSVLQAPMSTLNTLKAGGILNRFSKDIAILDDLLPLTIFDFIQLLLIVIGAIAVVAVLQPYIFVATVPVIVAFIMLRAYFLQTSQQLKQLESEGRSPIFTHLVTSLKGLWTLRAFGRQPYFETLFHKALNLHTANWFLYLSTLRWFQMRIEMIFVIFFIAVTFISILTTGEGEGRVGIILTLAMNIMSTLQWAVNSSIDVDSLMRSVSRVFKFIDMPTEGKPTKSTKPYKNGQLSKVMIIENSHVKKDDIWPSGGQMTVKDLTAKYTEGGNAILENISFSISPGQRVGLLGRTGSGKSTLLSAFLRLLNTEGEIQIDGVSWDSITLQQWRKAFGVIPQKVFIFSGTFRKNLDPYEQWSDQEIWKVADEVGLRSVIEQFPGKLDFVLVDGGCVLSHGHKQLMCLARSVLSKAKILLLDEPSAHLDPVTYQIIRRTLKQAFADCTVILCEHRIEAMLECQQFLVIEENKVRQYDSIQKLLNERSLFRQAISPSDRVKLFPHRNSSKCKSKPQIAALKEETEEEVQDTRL", "assay": "Fluorescence (HS-YFP) assay for CFTR activity, corrector assay", "assay_type": "cell-based", "conditions": "CFBE41o- and FRT cells with stable expression of mutant CFTR, read-out: activity (EC50)", "units": {"EC50": "nM"}, "values": [{"smiles": "CN(C(=O)c1cccc(-n2nc(C(F)F)c3c2C(Oc2ccc(C(=O)O)cc2)COC3)c1)c1ccc2c(c1)OC(F)(F)O2", "note": "(racemic) [Compound 263, 4-[[1-[3-[(2,2-difluoro-1,3-benzodioxol-5-yl)-methyl-carbamoyl]phenyl]-3-(difluoromethyl)-6,7-dihydro-4H-pyrano[4,3-c]pyrazol-7-yl]oxy]benzoic acid]", "EC50": "< 1000"}, {"smiles": "CN(C(=O)c1cccc(-n2nc(C(F)(F)F)c3c2CCN(C(=O)C2(O)CC2)C3)c1)c1ccc2c(c1)OCO2", "note": "[Compound 034, N-(1,3-Benzodioxol-5-yl)-3-[5-(1-hydroxycyclopropanecarbonyl)-3-(trifluoromethyl)-6,7-dihydro-4H-pyrazolo[4,3-c]pyridin-1-yl]-N-methyl-benzamide]", "EC50": "< 1000"}, {"smiles": "CN(C(=O)c1cccc(-n2nc(C(F)(F)F)c3c2C(Oc2ccc(C(=O)O)cc2)CCC3)c1)c1cnc2c(c1)CCC2", "note": "(racemic) [Compound 258, (rac)-4-[[1-[3-[6,7-dihydro-5H-Cyclopenta[b]pyridin-3-yl(methyl)carbamoyl]phenyl]-3-(trifluoromethyl)-4,5,6,7-tetrahydroindazol-7-yl]oxy]benzoic acid]", "EC50": "< 1000"}, {"smiles": "CN(C(=O)c1cccc(-n2nc(C(F)(F)F)c3c2C(Oc2ccc(C(=O)O)cc2)CCC3)c1)c1cnc2c(c1)OCC2", "note": "(single isomer, unassigned) [Compound 275, (S) or (R)-4-[[1-[3-[2,3-Dihydrofuro[3,2-b]pyridin-6-yl(methyl)carbamoyl]phenyl]-3-(trifluoromethyl)-4,5,6,7-tetrahydroindazol-7-yl]oxy]benzoic acid]", "EC50": "< 1000"}, {"smiles": "CN(C(=O)c1cccc(-n2nc(C(F)(F)F)c3c2C(Oc2ncc(C(=O)O)cn2)COC3)c1)c1cnc2c(c1)OCC2", "note": "(racemic) [Compound 300, 2-[[1-[3-[2,3-Dihydrofuro[3,2-b]pyridin-6-yl(methyl)carbamoyl]phenyl]-3-(trifluoromethyl)-6,7-dihydro-4H-pyrano[4,3-c]pyrazol-7-yl]oxy]pyrimidine-5-carboxylic acid]", "EC50": "< 1000"}, {"smiles": "Cc1nc2cc(F)c(N(C)C(=O)c3cccc(-n4nc(C(F)(F)F)c5c4CCN(S(=O)(=O)c4c(C)noc4C)C5)c3)cc2o1", "note": "[Compound 138, 3-[5-(3,5-Dimethylisoxazol-4-yl)sulfonyl-3-(trifluoromethyl)-6,7-dihydro-4H-pyrazolo[4,3-c]pyridin-1-yl]-N-(5-fluoro-2-methyl-1,3-benzoxazol-6-yl)-N-methyl-benzamide]", "EC50": "< 1000"}, {"smiles": "CN(C(=O)c1cccc(-n2nc(C(F)(F)F)c3c2C(Oc2ccc(C(N)=O)cc2)CCC3)c1)c1ccc2c(c1)OC(F)(F)O2", "note": "(single isomer, unassigned) [Compound 284, (S) or (R)-3-[7-(4-Carbamoylphenoxy)-3-(trifluoromethyl)-4,5,6,7-tetrahydroindazol-1-yl]-N-(2,2-difluoro-1,3-benzodioxol-5-yl)-N-methyl-benzamide]", "EC50": "< 1000"}, {"smiles": "CN(C(=O)c1cccc(-n2nc(C(F)(F)F)c3c2C(Oc2ccc(C(=O)O)cc2)COC3)c1)c1cnc2c(c1)OCC2", "note": "(racemic) [Compound 262, 4-[[1-[3-[2,3-Dihydrofuro[3,2-b]pyridin-6-yl(methyl)carbamoyl]phenyl]-3-(trifluoromethyl)-6,7-dihydro-4H-pyrano[4,3-c]pyrazol-7-yl]oxy]benzoic acid]", "EC50": "1000 to 2000"}, {"smiles": "COC(=O)c1cccc(S(=O)(=O)N2CCc3c(c(C(F)(F)F)nn3-c3cccc(C(=O)N(C)c4ccc5c(c4)OCO5)c3)C2)c1", "note": "[Compound 059, Methyl 3-[[1-[3-[1,3-benzodioxol-5-yl(methyl)carbamoyl]phenyl]-3-(trifluoromethyl)-6,7-dihydro-4H-pyrazolo[4,3-c]pyridin-5-yl]sulfonyl]benzoate]", "EC50": "< 1000"}, {"smiles": "CN(C(=O)c1cccc(-n2nc(C(F)(F)F)c3c2C(Oc2ccc(C(=O)O)cc2)COC3)c1)c1cnc2c(c1)CCC2", "note": "(racemic) [Compound 281, 4-[[1-[3-[6,7-Dihydro-5H-cyclopenta[b]pyridin-3-yl(methyl)carbamoyl]phenyl]-3-(trifluoromethyl)-6,7-dihydro-4H-pyrano[4,3-c]pyrazol-7-yl]oxy]benzoic acid]", "EC50": "1000 to 2000"}, {"smiles": "Cc1nc2ccc(N(C)C(=O)c3cccc(-n4nc(C(F)(F)F)c5c4CCNC5)c3)cc2o1", "note": "[Compound 030, N-Methyl-N-(2-methyl-1,3-benzoxazol-6-yl)-3-[3-(trifluoromethyl)-4,5,6,7-tetrahydropyrazolo[4,3-c]pyridin-1-yl]benzamide hydrochloride]", "EC50": "1000 to 2000"}, {"smiles": "CN(C(=O)c1cccc(-n2nc(C(F)(F)F)c3c2CC2CCC3N2C)c1)c1ccc2c(c1)OCO2", "note": "(racemic) [Compound 023, N-(Benzo[d][1,3]dioxol-5-yl)-N-methyl-3-(9-methyl-3-(trifluoromethyl)-5,6,7,8-tetrahydro-4,7-epiminocyclohepta [c]pyrazol-1(4H)-yl)benzamide]", "EC50": "< 1000"}, {"smiles": "Cc1nc2ccc(N(C)C(=O)c3cccc(-n4nc(C(F)(F)F)c5c4C(Oc4ccc(C(=O)O)cc4)CCC5)c3)cn2n1", "note": "(stereo not shown) [Compound 172, 4-[[1-[3-[Methyl-(2-methyl-[1,2,4]triazolo[1,5-a]pyridin-6-yl)carbamoyl]phenyl]-3-(trifluoromethyl)-4,5,6,7-tetrahydroindazol-7-yl]oxy]benzoic acid]", "EC50": "< 1000"}, {"smiles": "Cc1nc2cc(F)c(NC(=O)c3cccc(-n4nc(C(F)(F)F)c5c4CCN(C(=O)OC(C)(C)C)C5)c3)cc2o1", "note": "[Compound 037, tert-Butyl 1-[3-[(5-fluoro-2-methyl-1,3-benzoxazol-6-yl)carbamoyl]phenyl]-3-(trifluoromethyl)-6,7-dihydro-4H-pyrazolo[4,3-c]pyridine-5-carboxylate]", "EC50": "> 2000"}, {"smiles": "CN(C(=O)c1cccc(-n2nc(C(F)(F)F)c3c2C(Oc2ccc(C(=O)O)cc2)CCC3)c1)c1cncc(OC(F)F)c1", "note": "(racemic) [Compound 267, 4-[[1-[3-[[5-(Difluoromethoxy)-3-pyridyl]-methyl-carbamoyl]phenyl]-3-(trifluoromethyl)-4,5,6,7-tetrahydroindazol-7-yl]oxy]benzoic acid]", "EC50": "1000 to 2000"}, {"smiles": "CN(C(=O)c1cccc(-n2nc(C(F)(F)F)c3c2CNCC3)c1)c1ccc2c(c1)OCO2", "note": "[Compound 038, N-(1,3-Benzodioxol-5-yl)-N-methyl-3-[3-(trifluoromethyl)-4,5,6,7-tetrahydropyrazolo[3,4-c]pyridin-1-yl] benzamide hydrochloride]", "EC50": "< 1000"}, {"smiles": "CN(C(=O)c1cccc(-n2nc(C(F)(F)F)c3c2C[C@H]2CC[C@@H]3N2C(=O)OC(C)(C)C)c1)c1ccc2c(c1)OCO2", "note": "(single isomer, unassigned) [Compound 052, (4R,7S)- or (4S,7R)-tert-Butyl-1-(3-(benzo[d][1,3]dioxol-5-yl(methyl)carbamoyl)phenyl)-3-(trifluoromethyl)-1,4,5,6,7,8-hexahydro-4,7-epiminocyclohepta[c]pyrazole-9-carboxylate]", "EC50": "< 1000"}, {"smiles": "CC(C)c1nn(-c2cccc(C(=O)N(C)c3ccc4c(c3)OC(F)(F)O4)c2)c2c1CCCC2", "note": "[Compound 102, N-(2,2-difluoro-1,3-benzodioxol-5-yl)-3-(3-isopropyl-4,5,6,7-tetrahydroindazol-1-yl)-N-methyl-benzamide]", "EC50": "1000 to 2000"}, {"smiles": "Cc1nc2ccc(N(C)C(=O)c3cccc(-n4nc(C(F)(F)F)c5c4CCN(C(=O)OC(C)(C)C)C5)c3)cc2o1", "note": "[Compound 039, tert-Butyl 1-[3-[methyl-(2-methyl-1,3-benzoxazol-6-yl)carbamoyl]phenyl]-3-(trifluoromethyl)-6,7-dihydro-4H-pyrazolo[4,3-c]pyridine-5-carboxylate]", "EC50": "< 1000"}, {"smiles": "CN(C(=O)c1cccc(-n2nc(C(F)(F)F)c3c2C(Oc2ccc(C(=O)O)cc2)CCC3)c1)c1ccnc(OC(F)F)c1", "note": "(racemic) [Compound 268]", "EC50": "< 1000"}, {"smiles": "CN(C(=O)c1cccc(-n2nc(C(F)(F)F)c3c2C(Oc2ccc(C(=O)O)cc2)COC3)c1)c1ccnc(OC(F)F)c1", "note": "(racemic) [Compound 270, 4-[[1-[3-[[2-(Difluoromethoxy)-4-pyridyl]-methyl-carbamoyl]phenyl]-3-(trifluoromethyl)-6,7-dihydro-4H-pyrano[4,3-c]pyrazol-7-yl]oxy]benzoic acid]", "EC50": "< 1000"}, {"smiles": "Cc1nn(CCC(=O)O)c(C)c1S(=O)(=O)N1CCc2c(c(C(F)(F)F)nn2-c2cccc(C(=O)N(C)c3ccc4c(c3)OCO4)c2)C1", "note": "[Compound 086, 3-[4-[[1-[3-[1,3-Benzodioxol-5-yl(methyl)carbamoyl]phenyl]-3-(trifluoromethyl)-6,7-dihydro-4H-pyrazolo[4,3-c]pyridin-5-yl]sulfonyl]-3,5-dimethyl-pyrazol-1-yl] propanoic acid]", "EC50": "< 1000"}, {"smiles": "CN(C(=O)c1cccc(-n2nc(C(F)(F)F)c3c2CCN(C[C@H]2COC(C)(C)O2)C3)c1)c1ccc2c(c1)OCO2", "note": "[Compound 014, N-(1,3-Benzodioxol-5-yl)-3-[5-[[(4S)-2,2-dimethyl-1,3-dioxolan-4-yl]methyl]-3-(trifluoromethyl)-6,7-dihydro-4H-pyrazolo[4,3-c]pyridin-1-yl]-N-methyl-benzamide]", "EC50": "< 1000"}, {"smiles": "CN(C(=O)c1cccc(-n2nc(C(F)(F)F)c3c2C(Oc2ccc(C(=O)O)cc2)COC3)c1)c1ccc2c(c1)OC(F)(F)O2", "note": "(single isomer, unassigned) [Compound 206, (S) or (R)-4-[[1-[3-[(2,2-Difluoro-1,3-benzodioxol-5-yl)-methyl-carbamoyl]phenyl]-3-(trifluoromethyl)-6,7-dihydro-4H-pyrano[4,3-c]pyrazol-7-yl]oxy]benzoic acid]", "EC50": "< 1000"}]}, {"target": "T1, mutant CFTR", "assay": "Fluorescence (HS-YFP) assay for CFTR activity, corrector assay", "assay_type": "cell-based", "conditions": "activity (EC50), CFBE41o- and FRT cells with stable expression of mutant CFTR", "units": {"EC50": "nM"}, "values": [{"smiles": "CN(C(=O)c1cccc(-n2nc(C(F)(F)F)c3c2C[C@@H]2CC[C@H]3N2)c1)c1ccc2c(c1)OCO2", "note": "(single isomer, unassigned) [Compound 049, (4S,7R)- or (4R,7S)—N-(Benzo[d][1,3]dioxol-5-yl)-N-methyl-3-(3-(trifluoromethyl)-5,6,7,8-tetrahydro-4,7-epiminocyclohepta [c]pyrazol-1(4H)-yl)benzamide]", "EC50": "1000 to 2000"}]}]}
